Reference: patent publication US7772177B2, “BIR domain binding compounds” (Aegera Therapeutics, Inc., priority 2005, dated 2010)

Experiments:
[1] = target: T1, XIAP Bir3-RING (GST-BIR 3RING) (Homo sapiens, UniProt P98170); assay: Caspase de-repression assay using cellular extracts (apoptosome), XIAP Bir3-RING; assay type: biochemical; settings: 293 cell S100 extract
T1 construct: made in house; host or cells: E. coli DH5-alpha
Protocol: (§1) 100 ug of 293 cell S100 extract and 0.25 uM-2 uM of GST-Xiap fusion protein (GST-BIR 3RING, GST-linker BIR2 BIR3RING) were co-incubated with serial dilutions of compound (0.02 uM-40 uM). Extracts were activated by adding 1 mM dATP, 0.1 mM ALLN, 133 ug Cytochrome C (final concentrations), and incubating at 37° C. for 25 minutes. All reactions and dilutions used S100 buffer (50 mM Pipes pH 7.0, 50 mM KCl, 0.5 mM EGTA pH 8.0, 2 mM MgCl2 supplemented with 1/1000 dilutions of 2 mg/ml Cytochalisin B, 2, mg/ml Chymotstatin, Leupeptin, Pepstatin, Antipain, 0.1M PMSF, 1M DTT). Final reaction volume was 30 ul. Caspase-3 activity was measured by overlaying 30 ul of a 0.4 mM DEVD-AMC solution. AMC cleavage was measured in a TECAN spectrophotometer at 360 nm excitation and 444 nm emission, on a kinetic cycle of 1 hour with readings taken every 5 minutes. Caspase activity was calculated as Vo of AMC fluorescence/sec. Caspase de-repression by our compounds were compared to fully activated extract and activated extract repressed by the presence of XIAP fusion protein.
(§2) Results: Compounds were also tested in the apoptosome assay and the linker-BIR2/caspase-3 inhibition assay and found to have IC50s in the following ranges: A: >10 μM; B: <10 μM; C: <1 μM, as shown in Table 7.

[2] = target: T2, GST-HIAP2 (cIAP-1) BIR 3 (Homo sapiens, UniProt Q13490); assay: Fluorescence polarization-based competition assay, cIAP-1 Bir3; assay type: binding
T2 construct: made in house; host or cells: E. coli DH5-alpha
T2 sequence (Q13490 251-363): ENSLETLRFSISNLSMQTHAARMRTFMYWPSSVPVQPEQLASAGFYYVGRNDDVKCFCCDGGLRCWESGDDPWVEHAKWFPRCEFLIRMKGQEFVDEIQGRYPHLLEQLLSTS
Protocol: GST-HIAP2 (cIAP-1) BIR 3: HIAP2 coding sequence from amino acids 251-363 cloned into PGex4T3 via BamH1 and XhoI. The plasmid was transformed into E. coli DH5α for use in protein expression and purification.
(§3) A fluorescent peptide probe, Fmoc-Ala-Val-Pro-Phe-Tyr(t-Bu)-Leu-Pro-Gly(t-Bu)-Gly-OH was prepared using standard Fmoc chemistry on 2-chlorotrityl chloride resin (Int. J. Pept. Prot. Res. 38:555-561, 1991). Cleavage from the resin was performed using 20% acetic acid in dichloromethane (DCM), which left the side chain still blocked. The C-terminal protected carboxylic acid was coupled to 4′-(aminomethyl)fluorescein (Molecular Probes, A-1351; Eugene, Oreg.) using excess diisopropylcarbodiimide (DIC) in dimethylformamide (DMF) at room temperature and was purified by silica gel chromatography (10% methanol in DCM). The N-terminal Fmoc protecting group was removed using piperidine (20%) in DMF, and purified by silica gel chromatography (20% methanol in DCM, 0.5% HOAc). Finally, the t-butyl side chain protective groups were removed using 95% trifluoroacetic acid containing 2.5% water and 2.5% triisopropyl silane. […] Compound #174 was also used as a fluorescent probe in this assay.
(§4) For all assays, the fluorescence and fluorescence-polarization was evaluated using a Tecan Polarion instrument with the excitation filter set at 485 nm and the emission filter set at 535 nm. For each assay, the concentration of the target protein was first establish by titration of the selected protein in order to produce a linear dose-response signal when incubated alone in the presence of the fluorescent probe. Upon establishing these conditions, the compounds potency (IC50) and selectivity, was assessed in the presence of a fix defined-amount of target protein and fluorescent probe and a 10 point serial dilution of the selected compounds. For each IC50 curve, the assays were run as followed: 25 ul/well of diluted compound in 50 mM MES buffer pH 6.5 were added into a black 96 well plate then 25 ul/well of bovine serum albumin (BSA) at 0.5 mg/ml in 50 mM MES pH 6.5. Auto-fluorescence for each compound was first assessed by performing a reading of the compound/BSA solution alone. Then 25 ul of the fluorescein probe diluted into 50 mM MES containing 0.05 mg/ml BSA were added and a reading to detect quenching of fluorescein signal done. Finally 25 ul/well of the target or control protein (GST-BIRs) diluted at the appropriate concentration in 50 mM MES containing 0.05 mg/ml BSA were added and the fluorescence polarization evaluated.
(§5) For each assay the relative polarization-fluorescence units were plotted against the final concentrations of compound and the IC50 calculated using the Grad pad prism software and/or Cambridge soft. The ki value were derived from the calculated IC50 value as described above and according to the equation described in Nikolovska-Coleska, Z. (2004) Anal Biochem 332, 261-273.
(§6) Compounds exemplified in Table 6 were tested and found to have IC50s in the following ranges: A: >10 μM; B: <10 μM; C: <1 μM using the fluorescence polarization assay, as shown in Table 5. Each of the IC50s was calculated from Graph Pad.

[3] = target: T3, XIAP Bir2-Bir3-RING (GST-linker BIR2 BIR3RING) (Homo sapiens, UniProt P98170); assay: Caspase de-repression assay using cellular extracts (apoptosome), XIAP Bir2-Bir3-RING; assay type: biochemical; settings: 293 cell S100 extract
T3 construct: made in house; host or cells: E. coli DH5-alpha
T3 sequence (P98170 93-497): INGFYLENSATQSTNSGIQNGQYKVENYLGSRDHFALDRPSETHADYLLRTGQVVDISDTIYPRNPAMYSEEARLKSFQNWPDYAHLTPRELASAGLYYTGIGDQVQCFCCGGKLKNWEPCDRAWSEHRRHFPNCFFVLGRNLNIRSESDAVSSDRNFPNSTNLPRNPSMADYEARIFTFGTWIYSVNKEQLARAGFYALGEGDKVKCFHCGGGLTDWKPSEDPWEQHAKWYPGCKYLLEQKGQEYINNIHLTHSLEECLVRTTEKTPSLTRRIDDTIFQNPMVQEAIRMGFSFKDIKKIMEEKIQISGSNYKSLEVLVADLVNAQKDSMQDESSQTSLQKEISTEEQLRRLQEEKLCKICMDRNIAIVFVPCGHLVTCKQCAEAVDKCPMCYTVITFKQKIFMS
Protocol: as §1, §2

[4] = target: T4, GST-HIAP1(cIAP-2) BIR 3 (Homo sapiens, UniProt Q13489); assay: Fluorescence polarization-based competition assay, cIAP-2 Bir3; assay type: binding
T4 construct: made in house; host or cells: E. coli DH5-alpha
T4 sequence (Q13489 236-349): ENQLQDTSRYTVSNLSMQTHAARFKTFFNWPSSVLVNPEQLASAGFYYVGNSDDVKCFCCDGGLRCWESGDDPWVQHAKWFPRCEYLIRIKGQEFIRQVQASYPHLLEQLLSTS
Protocol: GST-HIAP1(cIAP-2) BIR 3: HIAP1 coding sequence from amino acids 236-349, cloned into PGex4T3 via BamH1 and XhoI. The plasmid was transformed into E. coli DH5α for use in protein expression and purification.
as §3, §4, §5, §6

[5] = target: T5, GST-XIAP BIR3RING (Homo sapiens, UniProt P98170); assay: Fluorescence polarization-based competition assay, XIAP Bir3-RING; assay type: binding
T5 construct: made in house; host or cells: E. coli DH5-alpha
T5 sequence (P98170 246-497): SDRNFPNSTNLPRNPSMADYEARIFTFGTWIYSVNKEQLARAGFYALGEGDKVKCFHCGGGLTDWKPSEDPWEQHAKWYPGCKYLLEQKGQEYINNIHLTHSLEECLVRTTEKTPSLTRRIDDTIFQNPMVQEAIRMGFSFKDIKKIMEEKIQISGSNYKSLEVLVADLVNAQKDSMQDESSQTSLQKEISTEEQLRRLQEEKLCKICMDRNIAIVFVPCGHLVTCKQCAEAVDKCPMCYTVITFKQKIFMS
Protocol: GST-XIAP BIR3RING: XIAP coding sequence amino acids 246-497 cloned into PGEX2T1 via BamH1 and AVA I. The plasmid was transformed into E. coli DH5α for use in protein expression and purification.
as §3, §4, §5, §6

[6] = target: T6, caspase-3 inhibited by linker BIR2-BIR3-RING of XIAP (Homo sapiens, UniProt P98170); assay: Caspase-3 linker-BIR2-BIR3-RING derepression assay; assay type: biochemical
T6 construct: made in house; host or cells: E. coli DH5-alpha (GST-XIAP); E. coli AD494 (His-caspase-3)
T6 sequence (P98170 93-497): as the sequence (P98170 93-497) above
Protocol: In order to determine the relative activity of the selected compound against BIR2, an in vitro assay was used where caspase-3 was inhibited by linker-BIR2 or linker BIR2-BIR3-RING of XIAP. Briefly, 1.5 ul of the enzyme, 0.25 uM to 2 uM of GST-Xiap fusion protein (GST-linker BIR2, GST-linker BIR2BIR3RING) were co-incubated with serial dilutions of compound (80 uM-0.04 uM). Caspase 3 activity was measured by overlaying 25 ul of a 0.4 mM DEVD-AMC solution. Final reaction volume was 100 ul. All dilutions were performed in caspase buffer (50 mM Hepes pH 7.4, 100 mM NaCl, 10% sucrose, 1 mM EDTA, 10 mM DTT, 0.1% CHAPS (Stennicke, H. R., and Salvesen, G. S. (1997). Biochemical characteristics of caspase-3, -6, -7, and -8. J. Biol. Chem. 272, 25719-25723)).
The fluorescent AMC released from the caspase-3 hydrolysis of the substrate was measured in a TECAN spectrophotometer at 360 nm excitation and 444 nm emission, on a kinetic cycle of 30 minutes with readings taken every 2 minutes. Caspase activity was calculated as Vo of AMC fluorescence/sec. Caspase de-repression by our compounds were compared to caspase-3 alone and caspase 3 repressed by the presence of XIAP fusion protein.
as §2

T1 sequence (P98170 246-497): as the sequence (P98170 246-497) above

Structure (SMILES) | IC50 [1] [µM] | IC50 [2] [µM] | IC50 [3] [µM] | IC50 [4] [µM] | IC50 [5] [µM] | IC50 [6] [µM]
CC[C@H](N)C(=O)N[C@H](C(=O)N1CCC[C@H]1CNCCc1ccccc1)C(C)C [Compound 2] | > 10 | < 10 | > 10 | < 10 | < 10 | –
CC(C)[C@H](NC(=O)[C@H](C)N)C(=O)N1CCC[C@H]1CN(C(=O)C(F)(F)F)[C@@H]1CCCc2ccccc21 [Compound 3] | < 1 | < 10 | > 10 | < 10 | < 10 | < 10
CC(C)[C@H](NC(=O)[C@H](C)N)C(=O)N1CCC[C@H]1CN(C(=O)C(F)(F)F)[C@H]1CCCc2ccccc21 [Compound 4] | > 10 | < 10 | > 10 | < 10 | < 10 | > 10
CC[C@H](N)C(=O)N[C@H](C(=O)N1CCC[C@H]1CN(CCc1ccccc1)C(C)=O)C(C)C [Compound 5] | < 1 | < 1 | > 10 | < 1 | < 10 | < 10
CC[C@H](N)C(=O)N[C@H](C(=O)N1CCC[C@H]1CN([C@H](C)c1ccccc1)S(C)(=O)=O)C(C)C [Compound 6] | < 1 | > 10 | < 10 | > 10 | > 10 | > 10
CC[C@H](N)C(=O)N[C@H](C(=O)N1CCC[C@H]1CN(C(C)=O)[C@H](C)c1ccccc1)C(C)C [Compound 7] | < 1 | – | – | – | > 10 | > 10
CC(=O)N(Cc1ccccn1)C[C@@H]1CCCN1C(=O)[C@@H](NC(=O)[C@H](C)N)C(C)C [Compound 8] | < 1 | < 10 | > 10 | < 10 | > 10 | > 10
CC[C@H](N)C(=O)N[C@H](C(=O)N1CCC[C@H]1CN(C(C)=O)[C@@H]1CCCc2ccccc21)C(C)C [Compound 9] | < 1 | > 10 | > 10 | > 10 | < 10 | > 10
CN[C@@H](C)C(=O)N[C@H](C(=O)N1CCC[C@H]1CN(CCc1ccccc1)C(=O)C(F)(F)F)C(C)(C)C [Compound 10] | < 10 | < 1 | > 10 | < 1 | < 1 | > 10
CC[C@H](N)C(=O)N[C@H](C(=O)N1CCC[C@H]1CN(Cc1ccccc1)C(=O)C(F)(F)F)C(C)C [Compound 12] | < 1 | > 10 | > 10 | > 10 | < 10 | > 10
CC[C@H](N)C(=O)N[C@H](C(=O)N1CCC[C@H]1CN(C(=O)C(F)(F)F)[C@H](C)c1ccccc1)C(C)C [Compound 13] | < 10 | < 10 | > 10 | > 10 | < 10 | > 10
CC[C@H](N)C(=O)N[C@H](C(=O)N1CCC[C@H]1CNC(=O)Cc1ccccc1)C(C)C [Compound 14] | < 10 | > 10 | > 10 | > 10 | > 10 | > 10
CC(C)[C@H](NC(=O)[C@H](C)N)C(=O)N1CCC[C@H]1CN(CCc1ccccc1)C(=O)c1ccccc1 [Compound 24] | < 1 | < 1 | – | < 1 | < 1 | > 10
COCC(=O)N(CCc1ccccc1)C[C@@H]1CCCN1C(=O)[C@@H](NC(=O)[C@H](C)N)C(C)C [Compound 25] | < 1 | < 1 | – | < 1 | < 10 | > 10
CN[C@@H](C)C(=O)N[C@H](C(=O)N1CCC[C@H]1CN(CCc1ccccc1)C(=O)OCc1ccccc1)C(C)(C)C [Compound 26] | > 10 | < 1 | – | < 1 | < 1 | > 10
CC(C)[C@H](NC(=O)[C@H](C)N)C(=O)N1CCC[C@H]1CN(CCc1ccccc1)C(=O)COc1ccccc1 [Compound 28] | < 1 | < 1 | – | < 1 | < 1 | > 10
CN[C@@H](C)C(=O)N[C@H](C(=O)N1CCC[C@H]1CN(CCc1ccccc1)C(=O)CN)C(C)(C)C [Compound 32] | < 1 | < 1 | – | < 1 | < 1 | > 10
CN[C@@H](C)C(=O)N[C@H](C(=O)N1CCC[C@H]1CN(CCc1ccccc1)C(=O)CCN)C(C)(C)C [Compound 33] | < 1 | < 1 | – | < 1 | < 1 | > 10
CNCC(=O)N(CCc1ccccc1)C[C@@H]1CCCN1C(=O)[C@@H](NC(=O)[C@H](C)NC)C(C)(C)C [Compound 34] | < 1 | < 1 | – | < 1 | < 1 | > 10
CN[C@@H](C)C(=O)N[C@H](C(=O)N1CCC[C@H]1CN(CCc1ccccc1)C(=O)CCC(=O)O)C(C)(C)C [Compound 35] | < 1 | < 1 | – | < 1 | < 1 | > 10
